Reference: ChEMBL document CHEMBL1201862, “PubChem BioAssay data set” (2004)
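Growth conditions: 96-well plates. Treatment: test compound, 48 hours, 5 concentrations. Analysis: linear interpolation between bracketing concentrations; unreached endpoints set to highest concentration. Here, GI50 denotes the concentration required for 50% inhibition of growth.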 Active and inactive are the calls of the source. No stated cut-off is given here; in the data, active = GI50 up to about 1.1 µM and inactive = higher.

What was measured:
Test in all cases: DTP human tumour cell line panel, 48 h
Hs-578T = system: Hs-578T
DMS-114 = system: DMS-114
HOP-18 = system: HOP-18
SNB-78 = system: SNB-78
DMS-273 = system: DMS-273
XF498 = system: XF498
LXFL 529 = system: LXFL 529
KM-20L2 = system: KM-20L2

C/N=C(\N)N/N=C(\C)c1ccc2oc3ccc(/C(C)=N/N/C(N)=N/C)cc3c2c1
GI50 (Hs-578T): 1.43 µM (inactive)

COC1(OC)CCc2c(sc3ncnc(Nc4cccc(Br)c4)c23)C1
GI50 (Hs-578T): > 100 µM (inactive)

N=C(N)N/N=C(/c1ccccc1)c1ccc(O)cc1O
GI50 (Hs-578T): 22 µM (inactive)

Oc1c(Cl)c(Cl)c(O)c(CCNc2ccc3ncccc3c2)c1Cl
GI50 (Hs-578T): 5.04 µM (inactive)

Cc1csc2nc(-c3ccc(Cl)c([N+](=O)[O-])c3)c(/C=N/NC(=N)N)n12
GI50 (Hs-578T): 1.4 µM (inactive)

CC(=O)N1CCC2(c3ccccc3N(C(C)=O)C2c2ccc(O)cc2)C1C(=O)O (configuration not stated)
GI50 (DMS-114): > 100 µM (inactive)
GI50 (HOP-18): > 100 µM (inactive)
GI50 (SNB-78): > 100 µM (inactive)
GI50 (DMS-273): > 100 µM (inactive)
GI50 (XF498): > 100 µM (inactive)
GI50 (LXFL 529): > 100 µM (inactive)
GI50 (KM-20L2): > 100 µM (inactive)

O=C1c2ccccc2C(=O)c2c(NCC3CO3)cccc21 (configuration not stated)
GI50 (Hs-578T): 38.4 µM (inactive)

Cc1c(C)c2c(c(N)c1C#N)C(=O)N(CCN1CCNCC1)C2=O
GI50 (Hs-578T): 28.8 µM (inactive)

CC1=NN(c2cccc(Cl)c2)C2(SCC(=O)N2c2nc3ccccc3s2)/C1=C\c1ccccc1 (configuration not stated)
GI50 (Hs-578T): 18.4 µM (inactive)

N#CC1CC2(CCN1C(=O)c1ccccc1)OCCO2 (configuration not stated)
GI50 (DMS-114): > 100 µM (inactive)
GI50 (HOP-18): > 100 µM (inactive)
GI50 (SNB-78): > 100 µM (inactive)
GI50 (DMS-273): > 100 µM (inactive)
GI50 (XF498): > 100 µM (inactive)
GI50 (LXFL 529): > 100 µM (inactive)
GI50 (KM-20L2): > 100 µM (inactive)

O=S(=O)(O)/C(=N\c1cccc(Cc2ccccc2)c1)Nc1cccc(Cc2ccccc2)c1
GI50 (Hs-578T): 19.1 µM (inactive)

Cc1ccc([N+](=O)[O-])cc1S(=O)(=O)Nc1ccc(C2=NNC(c3ccccc3)C2)cc1 (configuration not stated)
GI50 (Hs-578T): 22.5 µM (inactive)

O=C(c1ccccc1)c1ccc2c(c1)nc1n2C(c2c(Cl)cccc2Cl)SC1 (configuration not stated)
GI50 (Hs-578T): 84.1 µM (inactive)

CC(SC(=O)Nc1ccc(/N=N/c2ccccc2)cc1)C(=O)O (configuration not stated)
GI50 (DMS-114): > 100 µM (inactive)
GI50 (SNB-78): > 100 µM (inactive)
GI50 (DMS-273): 48.6 µM (inactive)
GI50 (LXFL 529): 98.4 µM (inactive)
GI50 (KM-20L2): > 100 µM (inactive)

CC1(C)C2CC(=O)C1(C)C(O)C2Br (configuration not stated)
GI50 (Hs-578T): 98.2 µM (inactive)

Cc1ccccc1Nc1cn(CCOc2ccccc2)c(=O)n(CCOc2ccccc2)c1=O
GI50 (Hs-578T): > 100 µM (inactive)

CC(=O)OC[C@@]1(C)[C@@H]2[C@@H]3[C@@]4(CO[C@]3(C)C(=O)[C@@]3(O)C[C@H](C)[C@H](OC(C)=O)[C@@H]3[C@H]4OC(C)=O)[C@H](OC(=O)c3ccccc3)C[C@@H]21
GI50 (Hs-578T): > 100 µM (inactive)

O=C(/C=C/c1ccsc1)c1ccsc1
GI50 (Hs-578T): 27.8 µM (inactive)

CC(C)(c1cn(Cc2ccccc2)c2ccccc12)c1cn(Cc2ccccc2)c2ccccc12
GI50 (DMS-114): > 100 µM (inactive)
GI50 (SNB-78): > 100 µM (inactive)
GI50 (LXFL 529): > 100 µM (inactive)

Clc1ccc(C(OCn2ccnc2)c2nc3ccccc3[nH]2)c(Cl)c1 (configuration not stated)
GI50 (Hs-578T): 59.3 µM (inactive)

COC(=O)CC1C(COC(C)=O)OC(n2cc(C)c(=O)[nH]c2=O)C1OC(C)=O (configuration not stated)
GI50 (Hs-578T): 4.73 µM (inactive)

CN(C)c1ccc(/C=c2/sc3nc(=O)c(-c4ccccc4NC(=O)C(F)(F)F)nn3c2=O)cc1
GI50 (DMS-114): 20.6 µM (inactive)
GI50 (SNB-78): > 100 µM (inactive)
GI50 (DMS-273): > 100 µM (inactive)
GI50 (XF498): > 100 µM (inactive)
GI50 (LXFL 529): > 100 µM (inactive)

CC(=O)OC1(C#N)CC2OC1C1C2N1C(=O)OC(C)(C)C (configuration not stated)
GI50 (DMS-114): > 100 µM (inactive)
GI50 (SNB-78): > 100 µM (inactive)
GI50 (XF498): > 100 µM (inactive)
GI50 (LXFL 529): > 100 µM (inactive)
GI50 (KM-20L2): > 100 µM (inactive)

N#CCOc1cccc(C2(N3CC=CCC3)CCCCC2)c1
GI50 (Hs-578T): > 100 µM (inactive)

Cc1n[nH]c(=O)n1/N=C/c1ccc([N+](=O)[O-])cc1
GI50 (Hs-578T): 78 µM (inactive)

COc1cc(C(SCc2ccccc2)SCc2ccccc2)ccc1O
GI50 (Hs-578T): 6.12 µM (inactive)

O=C(c1c(O)cc(O)cc1O)C1Cc2ccccc21 (configuration not stated)
GI50 (DMS-114): > 100 µM (inactive)
GI50 (HOP-18): 3.18 µM (inactive)
GI50 (SNB-78): 58.7 µM (inactive)
GI50 (DMS-273): 48.2 µM (inactive)
GI50 (LXFL 529): > 100 µM (inactive)
GI50 (KM-20L2): > 100 µM (inactive)

O=C(Nc1cccc(Cl)c1)Nn1cnnc1
GI50 (Hs-578T): > 100 µM (inactive)

N/C(=N\N=C\c1nc2ccccc2o1)c1cnccn1
GI50 (Hs-578T): > 100 µM (inactive)

Cc1cccc(/N=N/c2c(C)nn(C(=O)CC(=O)Nc3ccc(Cl)cc3)c2C)c1
GI50 (Hs-578T): 23.8 µM (inactive)

COc1ccc(C(=O)/C=C/c2ccc3c(c2)OCO3)c(OCc2ccccc2)c1
GI50 (Hs-578T): 7.82 µM (inactive)

Cc1c(-c2nc(N)nc(C3CC3)c2C)nc(N)nc1C1CC1
GI50 (Hs-578T): > 100 µM (inactive)

COC(=O)C1C(=O)C=CN([C@H](C)c2ccccc2)[C@@H]1Cc1ccc(OC)c(OCc2ccccc2)c1I (some centres not stated)
GI50 (Hs-578T): 17.5 µM (inactive)

O=C(O)c1ccc2c(c1C(=O)O)C(=O)OC2(c1ccc(O)cc1)c1ccc(O)cc1
GI50 (Hs-578T): > 100 µM (inactive)

CC1(C)[C@@H]2CC[C@@]1(C)C1(S[S+]1[O-])C21Cc2ccccc2C1 (some centres not stated)
GI50 (Hs-578T): 44.2 µM (inactive)

C/C(=C\C(=O)O)C(=O)N(C)c1ccccc1I
GI50 (Hs-578T): > 100 µM (inactive)

CC(=O)Nc1ccc(-c2nc3ccccc3s2)cc1C
GI50 (Hs-578T): 45.4 µM (inactive)

CC[C@H](C)[C@H](NC(=O)[C@@]1(O)[C@H](O)[C@]2(CC)C=CCN3CC[C@@]4(c5cc(Br)c(OC)cc5N(C)[C@@H]14)[C@@H]32)C(=O)OC
GI50 (Hs-578T): 23.2 µM (inactive)

CC1=C(C(=O)OCCc2ccc([N+](=O)[O-])cc2)C(c2ccccc2C(F)(F)F)C(C(=O)OC(C)C)=C(C)N1 (configuration not stated)
GI50 (Hs-578T): 2.12 µM (inactive)

COc1ccc(-c2cc(=O)c3ccc(O)cc3o2)c(OC)c1OC
GI50 (DMS-114): 33.2 µM (inactive)
GI50 (XF498): 65.5 µM (inactive)
GI50 (LXFL 529): 66.8 µM (inactive)
GI50 (KM-20L2): 43 µM (inactive)

O=C(Cc1nc2ccccc2s1)Nc1ccc(Cl)cc1
GI50 (SNB-78): > 100 µM (inactive)
GI50 (DMS-273): 84.7 µM (inactive)
GI50 (XF498): > 100 µM (inactive)
GI50 (LXFL 529): 44.2 µM (inactive)
GI50 (KM-20L2): 50.6 µM (inactive)

COc1ccc(/C=C/c2cnnc3ccccc23)cc1OC
GI50 (Hs-578T): > 10 µM (inactive)

CC1=NN(c2nc(N)nc(COc3ccc(N)cc3)n2)C(C)(C)C1
GI50 (Hs-578T): > 100 µM (inactive)

Nc1ccc2c(c1)C(=O)c1ccc(F)cc1-2
GI50 (Hs-578T): > 100 µM (inactive)

Cc1cc(C)c2c(SCc3ccc(Cl)cc3Cl)nc(N)nc2n1
GI50 (Hs-578T): 37.8 µM (inactive)

CCN(CC)C(=C(C(Cl)=C(Cl)Cl)[N+](=O)[O-])N(CC)CC
GI50 (Hs-578T): 24.7 µM (inactive)

O=c1[nH]cc(F)c(=O)[nH]1 [FLUOROURACIL]
GI50 (Hs-578T): 225 µM (inactive)

O=S(=O)(N/C(=N\O)Nc1ccc(Cl)cc1)c1ccc(S(=O)(=O)c2ccccc2)s1
GI50 (Hs-578T): 28.6 µM (inactive)

COc1ccc2c3c1C(=O)CCCC3CO2 (configuration not stated)
GI50 (DMS-114): > 100 µM (inactive)
GI50 (SNB-78): > 100 µM (inactive)
GI50 (DMS-273): > 100 µM (inactive)
GI50 (XF498): > 100 µM (inactive)
GI50 (LXFL 529): > 100 µM (inactive)

Cn1c(=O)c2ccccc2c2ccccc21
GI50 (Hs-578T): 44.5 µM (inactive)

O=C1CCC2(c3ccc(Cl)cc3)Nc3ncccc3N12 (configuration not stated)
GI50 (DMS-114): > 100 µM (inactive)
GI50 (SNB-78): 63 µM (inactive)
GI50 (XF498): > 100 µM (inactive)
GI50 (LXFL 529): > 100 µM (inactive)
GI50 (KM-20L2): > 100 µM (inactive)

O=c1[nH]ncc2[nH]c3c(c12)CCc1ccccc1-3
GI50 (Hs-578T): 10.4 µM (inactive)

CN1C(=O)C(c2c[nH]c3ccccc23)N(C)C(=O)C1c1c[nH]c2ccccc12 (configuration not stated)
GI50 (Hs-578T): 62.1 µM (inactive)

CC1C=C(NCC2(CO)CCC2)N=C(N)N1 (configuration not stated)
GI50 (Hs-578T): > 100 µM (inactive)

CSc1ncc2c(C#N)c3n(C)c4ccccc4n3c(=O)c2n1
GI50 (Hs-578T): > 100 µM (inactive)

O=C1CC(c2cccc([N+](=O)[O-])c2)C2(C(=O)NC(=S)NC2=O)C(c2cccc([N+](=O)[O-])c2)C1 (configuration not stated)
GI50 (Hs-578T): 22.8 µM (inactive)
